Measurements taken from US7399638B2, “Prediction method for lipidosis” (Takeda Pharmaceutical Company Limited, priority 2003, dated 2008).
Read-outs that look alike come from different tables or passages of the source. Marks after values point to notes of the source that are not given here.

Columns and labels:
[1] = tested on: Crj: CD(SD)IGS rats; conditions: male, rat, in vivo, 3 days
Protocol: (§1) The following 10 kinds of commercially available drugs were examined as the test compounds for a potential of inducing PLsis by histopathological examination and peripheral blood lymphocyte testing.
(§2) The following experiments were performed using the prematurely autopsied animals.
(§3) The high-dose dosing suspension was diluted about 3 fold and 10 fold with dispersant/solvent to prepare intermediate- and low-dose dosing suspensions. […] [For LD50, the Summary Basis of Approval (FDA) for each drug was referenced to.]
(§4) The animals were examined for mortality, general conditions, body weight, food consumption and the like using PM4800 (Mettler) and EB3200D (Shimadzu Corporation).
Hematological examination was performed for parameters such as RBC count, hematocrit, hemoglobin concentration, mean corpuscular hemoglobin (MCH), mean corpuscular hemoglobin concentration (MCHC), mean corpuscular volume (MCV), platelet count, WBC count, reticulocyte count, differential WBC, and vacuolated lymphocyte ratio (for PLsis-inducing compounds only) using ADVIA120 (Bayer Medical Ltd.) and E-4000 (Sysmex Corporation).

[2] = tested on: Crj: CD(SD)IGS rats; conditions: rat, in vivo
Protocol: as §1, §2, §3, §4

[3] = from Summary Basis of Approval (FDA); species and route not given; cited from earlier work
[4] = tested on: Crj: CD(SD)IGS rats; test: Urinary PAG/hippuric acid ratio by 1H NMR in rats; conditions: rat urine; for PAG + hippuric acid/creatinine / PAG/PAG + hippuric acid / PAG/creatinine (first term of PAG + hippuric acid) / PAG/hippuric acid / hippuric acid/creatinine (second term of PAG + hippuric acid): 3 days, mean n = 3-4

Structure (SMILES): CN(C)CCCN1c2ccccc2Sc2ccc(Cl)cc21 [Chlorpromazine, chlorpromazine]
- Mean vacuolated lymphocyte ratio ([1]; 100 mg/kg/day): 2%
- Mean vacuolated lymphocyte ratio ([1]; 300 mg/kg/day): 2%
- Mean vacuolated lymphocyte ratio ([1]; 1000 mg/kg/day): 1%
- PLsis positivity by histopathological examination or vacuolated lymphocyte testing [2]: could not be determined
- Histopathological changes (PLsis): Liver ([2]; 100 mg/kg/day): −
- Histopathological changes (PLsis): Lung ([2]; 100 mg/kg/day): −
- Histopathological changes (PLsis): Lymph node ([2]; 100 mg/kg/day): −
- Histopathological changes (PLsis): Others ([2]; 100 mg/kg/day): −
- Histopathological changes (PLsis): Spleen ([2]; 100 mg/kg/day): −
- Histopathological changes (PLsis): Liver ([2]; 300 mg/kg/day): −
- Histopathological changes (PLsis): Lung ([2]; 300 mg/kg/day): −
- Histopathological changes (PLsis): Lymph node ([2]; 300 mg/kg/day): −
- Histopathological changes (PLsis): Others ([2]; 300 mg/kg/day): −
- Histopathological changes (PLsis): Spleen ([2]; 300 mg/kg/day): −
- Histopathological changes (PLsis): Liver ([2]; 1000 mg/kg/day): −
- Histopathological changes (PLsis): Lung ([2]; 1000 mg/kg/day): −
- Histopathological changes (PLsis): Lymph node ([2]; 1000 mg/kg/day): −
- Histopathological changes (PLsis): Others ([2]; 1000 mg/kg/day): −
- Histopathological changes (PLsis): Spleen ([2]; 1000 mg/kg/day): −
- LD50 [3]: 145 mg/kg
- PAG + hippuric acid/creatinine ([4]; 100 mg/kg/day by gavage): 1.45
- PAG/PAG + hippuric acid ([4]; 100 mg/kg/day by gavage): 12.80%
- PAG/creatinine (first term of PAG + hippuric acid) ([4]; 100 mg/kg/day by gavage): 0.18
- PAG/hippuric acid ([4]; 100 mg/kg/day by gavage): 14.93%
- hippuric acid/creatinine (second term of PAG + hippuric acid) ([4]; 100 mg/kg/day by gavage): 1.27
- PAG + hippuric acid/creatinine ([4]; 300 mg/kg/day by gavage): 1.63
- PAG/PAG + hippuric acid ([4]; 300 mg/kg/day by gavage): 12.57%
- PAG/creatinine (first term of PAG + hippuric acid) ([4]; 300 mg/kg/day by gavage): 0.21
- PAG/hippuric acid ([4]; 300 mg/kg/day by gavage): 14.51%
- PAG + hippuric acid/creatinine ([4]; 1000 mg/kg/day by gavage): 0.86*
- PAG/PAG + hippuric acid ([4]; 1000 mg/kg/day by gavage): 42.20* %
- PAG/creatinine (first term of PAG + hippuric acid) ([4]; 1000 mg/kg/day by gavage): 0.30
- PAG/hippuric acid ([4]; 1000 mg/kg/day by gavage): 104.13* %
- hippuric acid/creatinine (second term of PAG + hippuric acid) ([4]; 1000 mg/kg/day by gavage): 0.56
- PAG/hippuric acid ratio or PAG/(PAG+hippuric acid) ratio ([4]; high-dose administration group, 3-day administration): remarkable increase
